Our source for the MIC and LD100 values is EP0036650A2, “Cephalosporin derivatives, process for their preparation, corresponding compositions, their use in the treatment of diseases and intermediates” (F. HOFFMANN-LA ROCHE & CO. Aktiengesellschaft, priority 1980, dated 1981).

Each structure is given as a SMILES string. Values after ≈ are worked out from the molar mass of the structure shown.

One series concerns Neisseria gonorrhoeae. Briefly: Minimum inhibitory concentration in vitro. In kind it is cell-based. An excerpt:
(§1) Zum Nachweis der antimikrobiellen Wirksamkeit der erwähnten Produkte wurde das (6R,7R)-7-[2-(2-Amino-5-thiazolyl)-2-[(Z)-methoxyimino]acetamido]-3-[[(2,5-dihydro-2-methyl-5-oxo-as-triazin-3-yl)thio]methyl]-8-oxo-5-thia-1-azabicyclo[4.2.0]oct-2-en-2-carbonsäure-Natriumsalz auf seine Aktivität in vitro gegen verschiedene Krankheitserreger getestet. Nachstehend sind die entsprechenden Mindesthemmkonzentrationen (MIC; µg/ml) zusammengestellt: […]

The test system of series [1] is Pseudomonas aeruginosa Stamm 1. The series is described as follows: Minimum inhibitory concentration in vitro. The note with it: STAMM1, ß-Lactamase bildende Stämme. The class given is cell-based.
From the text: as §1

The subject of the next series is Staphylococcus aureus. Briefly: Minimum inhibitory concentration in vitro. The class given is cell-based.
From the text: as §1

Another series relates to Haemophilus influenzae. The series is described as follows: Minimum inhibitory concentration in vitro. The class given is cell-based.
From the text: as §1

For series [2], the system named is Pseudomonas aeruginosa Stamm 2. Briefly: Minimum inhibitory concentration in vitro. In kind it is cell-based. The conditions noted are these: STAMM2, ß-Lactamase bildende Stämme.
From the text: as §1

In a further series the test system is Escherichia coli. The series is described as follows: Minimum inhibitory concentration in vitro. The class given is cell-based. The conditions noted are these: ß-Lactamase bildende Stämme.
From the text: as §1

The next series relates to Enterobacter cloacae. Briefly: Minimum inhibitory concentration in vitro. In kind it is cell-based. The conditions noted are these: ß-Lactamase bildende Stämme.
From the text: as §1

The test system of the next series is Proteus vulgaris. The series is described as follows: Minimum inhibitory concentration in vitro. The class given is cell-based. The conditions noted are these: ß-Lactamase bildende Stämme.
From the text: as §1

The test system of another series is Proteus mirabilis. The series is described as follows: Minimum inhibitory concentration in vitro. The class given is cell-based. The conditions noted are these: ß-Lactamase bildende Stämme.
From the text: as §1

A further series concerns Serratia marcescens. The series is described as follows: Minimum inhibitory concentration in vitro. The note with it: ß-Lactamase bildende Stämme. The class given is cell-based.
From the text: as §1

A further series can be described thus: Toxicity (lethal dose). In kind it is in vivo.

For the compound `CO/N=C(\C(=O)N[C@@H]1C(=O)N2C(C(=O)O)=C(CSc3nc(=O)cnn3C)CS[C@H]12)c1csc(N)n1` [(6R,7R)-7-[2-(2-Amino-4-thiazolyl)-2-[(Z)-methoxyimino]ace-tamido]-3-[[(2,5-dihydro-2-methyl-5-oxo-as-triazin-3-yl)thio]methyl]-8-oxo-5-thia-1-azabicyclo[4.2.0]oct-2-en-2-carbonsäure-Natriumsalz], the MIC in the series with Neisseria gonorrhoeae was found to be 0.02 µg/mL (≈ 0.0371 µM); in [1] it was 40 µg/mL (≈ 74.3 µM); in the series on Staphylococcus aureus, 2.5 µg/mL (≈ 4.64 µM); against Haemophilus influenzae it was 0.02 µg/mL (≈ 0.0371 µM); in [2] it was 40 µg/mL (≈ 74.3 µM); with Escherichia coli, 0.04 µg/mL (≈ 0.0743 µM). Besides, the MIC worked out at 2.5 µg/mL (≈ 4.64 µM) against Enterobacter cloacae, 0.02 µg/mL (≈ 0.0371 µM) in the series with Proteus vulgaris, 0.04 µg/mL (≈ 0.0743 µM) against Proteus mirabilis and 0.16 µg/mL (≈ 0.297 µM) against Serratia marcescens. The LD100 in “Toxicity (lethal dose)” (i.v.) is given as 1000 mg/kg; in the series “Toxicity (lethal dose)” (p.o.), above 5000 mg/kg; in “Toxicity (lethal dose)” (s.c.) it was above 5000 mg/kg.
